The text below walks through data of US8497287B2, “Aminotetralin compounds as mu opioid receptor antagonists” (priority 2007, dated 2013).

Test [1] concerns the target T1, human mu opioid receptor (Homo sapiens, UniProt P35372).
T1 construct: host or cells: CHO-K1 cells, membranes
Put plainly: biochemical. In kind it is binding.

Test [2] concerns the target T1, human mu opioid receptor. Put plainly: biochemical. The note with it: read-out: intrinsic activity (IA), expressed as a percentage.
The test system of test [3] is loperamide-induced delayed gastric emptying. Put plainly: Rat gastric emptying assay, reversal of loperamide-induced delayed gastric emptying. In kind it is in vivo. The note with it: administered orally, loperamide 1 mg/kg s.c., gastric emptying model.

T1 sequence (P35372 whole entry): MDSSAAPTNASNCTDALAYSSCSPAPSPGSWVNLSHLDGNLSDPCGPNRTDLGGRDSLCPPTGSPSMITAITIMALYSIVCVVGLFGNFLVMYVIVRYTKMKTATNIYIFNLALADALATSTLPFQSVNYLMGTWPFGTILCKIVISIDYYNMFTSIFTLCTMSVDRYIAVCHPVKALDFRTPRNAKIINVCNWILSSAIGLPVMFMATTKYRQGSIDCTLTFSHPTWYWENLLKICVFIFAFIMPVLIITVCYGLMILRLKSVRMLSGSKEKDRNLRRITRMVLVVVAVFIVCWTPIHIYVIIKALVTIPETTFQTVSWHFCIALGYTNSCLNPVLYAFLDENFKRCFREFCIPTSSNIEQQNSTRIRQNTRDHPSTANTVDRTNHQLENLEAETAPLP

In general, Ki refers to a measure of affinity in units of concentration, obtained from inhibition or displacement. A lower Ki goes with a stronger hold on the target. For `COC1Cc2ccc(C(N)=O)cc2C(C)(C)C1NCCC(=O)N1CCCCC1` (racemic) [Example 1, trans-6-Methoxy-8,8-dimethyl-7-(3-oxo-3-piperidin-1-yl-propylamino)-5,6,7,8-tetrahydro-naphthalene-2-carboxylic acid amide], on human mu opioid receptor [1], affinity was put at a Ki of 0.1 nM. On human mu opioid receptor [2], the Emax is 0%. Also, the “ID50, dose required for 50% reversal of the effects of loperamide” value in test [3] is listed as 0.48 mg/kg.

In the case of `CCC1(CC)c2cc(O)ccc2C[C@@H](OC)[C@@H]1NCC(Cc1ccccc1)C(=O)O` (relative stereo) [Example 11, 2-Benzyl-3-(trans-1,1-diethyl-7-hydroxy-3-methoxy-1,2,3,4-tetrahydro-naphthalen-2-ylamino)-propionic acid], the affinity on human mu opioid receptor [1] corresponds to a Ki of 1.26 nM. Besides, the Emax on human mu opioid receptor [2] was -6%.
